Each block holds one compound with its values, some of them ahead of it.
Key:
[1] = system: PC43–10 CHO cells expressing human RFC; assay: Growth inhibition; conditions: CHO subline expressing human RFC; drug up to 1000 nM, up to 96 h; mean (SE)
[2] = system: NCI-IGROV1 EOC xenografts; assay: In vivo efficacy trial, subcutaneous NCI-IGROV1 EOC xenografts in SCID mice; conditions: for Antitumor activity toward NCI-IGROV1 tumors in vivo (in words): SCID mice, folate-deficient diet
FRβ = FRβ (Homo sapiens, UniProt P14207); assay: Competitive [3H]folic acid binding to FRβ in D4 CHO cells; conditions: 50 nM [3H]folic acid, 15 min, 0 °C
Sequence of FRβ (P14207 17-255): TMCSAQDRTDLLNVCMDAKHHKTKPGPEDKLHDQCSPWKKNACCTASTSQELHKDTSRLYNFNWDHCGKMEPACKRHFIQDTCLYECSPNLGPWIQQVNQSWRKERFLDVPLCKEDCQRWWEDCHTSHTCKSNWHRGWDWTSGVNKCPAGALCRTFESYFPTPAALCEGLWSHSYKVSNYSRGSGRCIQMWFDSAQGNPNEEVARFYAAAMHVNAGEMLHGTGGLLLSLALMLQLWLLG

[3] = system: D4 CHO cells expressing human FRβ; conditions: for IC50: Homo sapiens, CHO, read-out: IC50 growth inhibition, FRβ, D4; for IC50 growth inhibition, FRβ, D4: without folic acid, mean (SE)
FRα = FRα (Homo sapiens, UniProt P15328); assay: Competitive [3H]folic acid binding to FRα in RT16 CHO cells; conditions: 50 nM [3H]folic acid, 15 min, 0 °C
Sequence of FRα (P15328 25-257): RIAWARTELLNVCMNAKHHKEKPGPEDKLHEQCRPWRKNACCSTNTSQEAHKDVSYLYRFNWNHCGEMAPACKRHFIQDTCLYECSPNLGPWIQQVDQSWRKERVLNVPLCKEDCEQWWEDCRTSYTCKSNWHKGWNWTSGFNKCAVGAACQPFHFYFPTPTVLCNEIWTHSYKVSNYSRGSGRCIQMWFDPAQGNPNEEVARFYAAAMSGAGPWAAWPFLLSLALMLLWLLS

[4] = system: KB human tumor cells (RFC/FRα/PCFT); assay: Growth inhibition of KB human tumor cells, with and without 200 nM folic acid; conditions: without folic acid; mean (SE)
[5] = system: RT16 CHO cells expressing human FRα
PCFT = target: T1, PCFT (Homo sapiens, UniProt Q96NT5); assay: Competitive inhibition of [3H]MTX uptake by PCFT in R2/PCFT4 cells; format: cell-based
T1 sequence (Q96NT5 1-459): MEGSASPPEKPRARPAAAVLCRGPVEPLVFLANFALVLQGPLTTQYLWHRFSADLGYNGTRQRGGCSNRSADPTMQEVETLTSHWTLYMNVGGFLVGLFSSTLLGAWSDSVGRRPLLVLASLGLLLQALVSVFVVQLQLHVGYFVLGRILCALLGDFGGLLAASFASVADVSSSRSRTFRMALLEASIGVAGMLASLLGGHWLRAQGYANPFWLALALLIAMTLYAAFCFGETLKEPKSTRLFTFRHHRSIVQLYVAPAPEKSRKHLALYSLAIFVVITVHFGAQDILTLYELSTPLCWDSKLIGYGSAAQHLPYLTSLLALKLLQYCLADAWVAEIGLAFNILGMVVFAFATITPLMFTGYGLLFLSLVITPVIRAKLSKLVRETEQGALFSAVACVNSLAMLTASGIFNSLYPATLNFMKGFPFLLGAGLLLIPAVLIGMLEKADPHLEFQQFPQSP

SMILES: Nc1nc2[nH]c(CCCCc3ccc(C(=O)N[C@@H](CCC(=O)O)C(=O)O)cc3)cc2c(=O)[nH]1 [Compound 1, reference compound]
IC50 growth inhibition, RFC, PC43–10 [1]: no activity

SMILES: Nc1nc2[nH]c(CCCCc3ccc(C(=O)N[C@@H](CCC(=O)O)C(=O)O)nc3)cc2c(=O)[nH]1 [Compound 6, (5-(4-(2-Amino-4-oxo-4,7-dihydro-3H-pyrrolo[2,3-d]pyrimidin-6-yl)butyl)picolinoyl)-L-glutamic Acid]
Antitumor activity toward NCI-IGROV1 tumors in vivo (in words) [2]: excellent activity
Antitumor activity, standard (high folate) diet ([2]; mice on standard folate-replete diet): abolished
IC50 growth inhibition, RFC, PC43–10 [1]: no activity

Relative binding affinity to FRβ (vs folic acid) (FRβ): sharply reduced
Relative binding affinity to FRα (vs folic acid) (FRα): sharply reduced
SMILES: Nc1nc2[nH]c(CCCCc3cccc(C(=O)N[C@@H](CCC(=O)O)C(=O)O)n3)cc2c(=O)[nH]1 [Compound 7, (6-(4-(2-Amino-4-oxo-4,7-dihydro-3H-pyrrolo[2,3-d]pyrimidin-6-yl)butyl)picolinoyl)-L-glutamic Acid]
IC50 [3]: > 1 µM
IC50 growth inhibition, FRβ, D4 [3]: inactive

IC50 growth inhibition, RFC/FRα/PCFT, KB [4]: inactive
SMILES: Nc1nc2[nH]c(CCC#Cc3ccc(C(=O)N[C@@H](CCC(=O)O)C(=O)O)nc3)cc2c(=O)[nH]1 [Compound 9, (5-(4-(2-Amino-4-oxo-4,7-dihydro-3H-pyrrolo[2,3-d]pyrimidin-6-yl)but-1-yn-1-yl)picolinoyl)-L-glutamic Acid]
Fold less active than 6, FRα-expressing CHO cells [5]: ~ 4 fold

SMILES: Nc1nc2[nH]c(CCC#Cc3cccc(C(=O)N[C@@H](CCC(=O)O)C(=O)O)n3)cc2c(=O)[nH]1 [Compound 10, (6-(4-(2-Amino-4-oxo-4,7-dihydro-3H-pyrrolo[2,3-d]pyrimidin-6-yl)but-1-yn-1-yl)picolinoyl)-L-glutamic Acid]
IC50 [3]: > 1 µM
IC50 growth inhibition, FRβ, D4 [3]: inactive
IC50 ([5]; Homo sapiens, RT16, read-out: IC50 growth inhibition, FRα, RT16): > 1 µM
IC50 growth inhibition, FRα, RT16 ([5]; without folic acid, mean (SE)): no activity

SMILES: Nc1nc2[nH]cc(CCc3ccc(C(=O)N[C@@H](CCC(=O)O)C(=O)O)cc3)c2c(=O)[nH]1 [PMX, N-{4-[2-(2-amino-3,4-dihydro-4-oxo-7H-pyrrolo-[2,3-d]pyrimidin-5-yl)ethyl]benzoyl}-L-glutamic acid, reference compound]
Antitumor activity toward NCI-IGROV1 tumors in vivo (in words) [2]: inactive
inhibition at 10 µM (PCFT; R2/PCFT4, pH 5.5, read-out: Inhibition of [3H]MTX transport by PCFT): ≥ 90%

Effect on [3H]MTX uptake by PCFT (PCFT; pH 5.5 and pH 6.8, 1 or 10 μM): no effect
SMILES: CN(Cc1cnc2nc(N)nc(N)c2n1)c1ccc(C(=O)N[C@@H](CCCNC(=O)c2ccccc2C(=O)O)C(=O)O)cc1 [PT523, Nα-(4-amino-4-deoxypteroyl)-Nδ-hemiphthaloyl-L-ornithine]

Reference: article PMC6382392 (Journal of medicinal chemistry, 2018)
